Laboratory results published in PubChem BioAssay AID1963825 (Molecular Pharmacology Branch, DTP, NCI, 2024).

Assay: Anticancer human tumor 997537-175-T-J1-PDC patient-derived colon adenocarcinoma cell line growth inhibition [POLQ]
Conditions: 997537-175-T-J1-PDC complex spheroid viability, combination with POLQ inhibitors; for IC50: curve of first compound; for viability, T/C: stronger effect = lower value
Method in brief: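 Complex spheroid viability model combining PDC tumour cells with endothelial (HUVEC) and MSC stromal cells. Novobiocin, ART-558 or RP6685 were tested singly and in combination with standard and investigational anticancer drugs. Each was titrated in half-log steps from near clinical Cmax, or from 10 microM where Cmax was unknown.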

[1] = second compound 0.0316 µM, first compound 0.0316 µM
[2] = second compound 0.0316 µM, first compound 0.1 µM
[3] = second compound 0.0316 µM, first compound 0.316 µM
[4] = second compound 0.0316 µM, first compound 1 µM
[5] = second compound 0.1 µM, first compound 0.0316 µM
[6] = second compound 0.1 µM, first compound 0.1 µM
[7] = second compound 0.1 µM, first compound 0.316 µM
[8] = second compound 0.1 µM, first compound 1 µM
[9] = second compound 0.316 µM, first compound 0.0316 µM
[10] = second compound 0.316 µM, first compound 0.1 µM
[11] = second compound 0.316 µM, first compound 0.316 µM
[12] = second compound 0.316 µM, first compound 1 µM
[13] = second compound 1 µM, first compound 0.0316 µM
[14] = second compound 1 µM, first compound 0.1 µM
[15] = second compound 1 µM, first compound 0.316 µM
[16] = second compound 1 µM, first compound 1 µM
[17] = second compound 3.16 µM, first compound 0.0316 µM
[18] = second compound 3.16 µM, first compound 0.1 µM
[19] = second compound 3.16 µM, first compound 0.316 µM
[20] = second compound 3.16 µM, first compound 1 µM
[21] = second compound 10 µM, first compound 0.0316 µM
[22] = second compound 10 µM, first compound 0.1 µM
[23] = second compound 10 µM, first compound 0.316 µM
[24] = second compound 10 µM, first compound 1 µM
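Note: luminescence signal used as a surrogate for viable cells; spheroids exposed to drugs for seven days before readout.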

In the case of C=CC(=O)N1CCN(c2nc(=O)n(-c3c(C)ccnc3C(C)C)c3nc(-c4c(O)cccc4F)c(F)cc23)C(C)C1 (centres undefined) + Nc1ccc(C#CCN(C(=O)Cc2ncc(C(F)(F)F)cc2C(F)(F)F)c2ccc(F)cc2)nn1, the IC50 (second compound 0.0316 µM) is reported as > 10000 nM, the IC50 (second compound 0.1 µM) is reported as > 10000 nM and the IC50 (second compound 0.316 µM) is reported as > 10000 nM. For the same compound, the IC50 (second compound 1 µM) was > 10000 nM, the IC50 (second compound 3.16 µM) was > 10000 nM and the IC50 (second compound 10 µM) was > 10000 nM. For the same compound, the viability, T/C [1] was 106%, the viability, T/C [2] was 97.1% and the viability, T/C [3] was 95.4%. The viability, T/C [4] was 108%, the viability, T/C (second compound 0.0316 µM, first compound 3.16 µM) was 93.8% and the viability, T/C (second compound 0.0316 µM, first compound 10 µM) was 100%. For the same compound, the viability, T/C [5] was 103%, the viability, T/C [6] was 91.1% and the viability, T/C [7] was 102%. The viability, T/C [8] was 96.7%, the viability, T/C (second compound 0.1 µM, first compound 3.16 µM) was 111% and the viability, T/C (second compound 0.1 µM, first compound 10 µM) was 107%. For the same compound, the viability, T/C [9] was 96.6%, the viability, T/C [10] was 102% and the viability, T/C [11] was 103%. It also gave a viability, T/C [12] of 101%, a viability, T/C (second compound 0.316 µM, first compound 3.16 µM) of 90.9% and a viability, T/C (second compound 0.316 µM, first compound 10 µM) of 94%. It also gave a viability, T/C [13] of 102%, a viability, T/C [14] of 111% and a viability, T/C [15] of 109%. The viability, T/C [16] was 97.2%, the viability, T/C (second compound 1 µM, first compound 3.16 µM) was 96.9% and the viability, T/C (second compound 1 µM, first compound 10 µM) was 97.6%. The viability, T/C [17] was 96.3%, the viability, T/C [18] was 106% and the viability, T/C [19] was 103%. The viability, T/C [20] was 96.8%, the viability, T/C (second compound 3.16 µM, first compound 3.16 µM) was 106% and the viability, T/C (second compound 3.16 µM, first compound 10 µM) was 98.2%. For the same compound, the viability, T/C [21] was 101%, the viability, T/C [22] was 106% and the viability, T/C [23] was 104%. For the same compound, the viability, T/C [24] was 95.3%, the viability, T/C (second compound 10 µM, first compound 3.16 µM) was 97.6% and the viability, T/C (second compound 10 µM, first compound 10 µM) was 90.8%.
CCc1c2c(nc3ccc(O)cc13)-c1cc3c(c(=O)n1C2)COC(=O)[C@]3(O)CC + Nc1ccc(C#CCN(C(=O)Cc2ncc(C(F)(F)F)cc2C(F)(F)F)c2ccc(F)cc2)nn1 gave an IC50 (second compound 0.0316 µM) of 24.9 nM, an IC50 (second compound 0.1 µM) of 15.4 nM and an IC50 (second compound 0.316 µM) of 29.5 nM. The IC50 (second compound 1 µM) was 20 nM, the IC50 (second compound 3.16 µM) was 21.9 nM and the IC50 (second compound 10 µM) was 16.3 nM. For the same compound, the viability, T/C (second compound 0.0316 µM, first compound 0.00316 µM) was 89.5%, the viability, T/C (second compound 0.0316 µM, first compound 0.01 µM) was 91.4% and the viability, T/C [1] was 39.2%. It also gave a viability, T/C [2] of 19%, a viability, T/C [3] of 6.65% and a viability, T/C [4] of 10.3%. The viability, T/C (second compound 0.1 µM, first compound 0.00316 µM) was 89.9%, the viability, T/C (second compound 0.1 µM, first compound 0.01 µM) was 60.1% and the viability, T/C [5] was 32.7%. For the same compound, the viability, T/C [6] was 20.1%, the viability, T/C [7] was 6.93% and the viability, T/C [8] was 6.26%. The viability, T/C (second compound 0.316 µM, first compound 0.00316 µM) was 79.8%, the viability, T/C (second compound 0.316 µM, first compound 0.01 µM) was 65.1% and the viability, T/C [9] was 51.6%. For the same compound, the viability, T/C [10] was 19.6%, the viability, T/C [11] was 6.57% and the viability, T/C [12] was 10.8%. The viability, T/C (second compound 1 µM, first compound 0.00316 µM) was 83.5%, the viability, T/C (second compound 1 µM, first compound 0.01 µM) was 70.4% and the viability, T/C [13] was 33.9%. The viability, T/C [14] was 22.8%, the viability, T/C [15] was 5.79% and the viability, T/C [16] was 5.67%. The viability, T/C (second compound 3.16 µM, first compound 0.00316 µM) was 74.1%, the viability, T/C (second compound 3.16 µM, first compound 0.01 µM) was 66.7% and the viability, T/C [17] was 42%. For the same compound, the viability, T/C [18] was 16.7%, the viability, T/C [19] was 7.19% and the viability, T/C [20] was 6.33%. The viability, T/C (second compound 10 µM, first compound 0.00316 µM) was 76.5%, the viability, T/C (second compound 10 µM, first compound 0.01 µM) was 65.5% and the viability, T/C [21] was 29%. For the same compound, the viability, T/C [22] was 17.8%, the viability, T/C [23] was 9.23% and the viability, T/C [24] was 3.78%.
